Where a SMILES comes first, the peptide text is derived from it.
Tests used:
[1] = Compound was evaluated for the Ki value for peptide alcohol for competitive inhibition in the presence of Mn2+ ions at pH 7.5; format: ADME
[2] = tested on: protein phosphatase; assay: Compound was evaluated for the Michaelis-Menten constant, Km in a generic protein phosphatase stopped assay system; format: ADME

Row | Ki [1] | Km [2] | Compound
1 | 1.6 mM | 3.7 mM | CC(=O)N[C@@H](CCCN=C(N)N)C(=O)N[C@@H](CCCN=C(N)N)C(=O)N[C@@H](C)C(=O)N[C@H](C(=O)N[C@H](C(=O)N[C@@H](C)C(=O)O)C(C)C)[C@@H](C)OP(=O)(O)O (HELM PEPTIDE1{[ac].R.R.A.[C[C@@H](OP(=O)(O)O)[C@H](N[*:1])C(=O)[*:2]].V.A}$$$$V2.0)
2 | > 30 mM |  | H-RRATVA-OH

Reference: ChEMBL document CHEMBL1134186, “Protein phosphatase 1 catalyses the direct hydrolytic cleavage of phosphate monoester in a ternary complex mechanism” (Bioorg Med Chem Lett, 2001)
